Assay results: patent US20130217761A1 (Laboratorio Catarinense S/A, priority 2009, published 2013)

Tests used:
isolated rabbit heart [1] = experiment: reversal of sustained electrically induced ventricular fibrillation, isolated rabbit heart (Langendorff preparation); settings: added to perfusate
Method: The thorax was rapidly opened by middle-sized incision, and the sternum beaten back for complete exposure of the inside of the thorax. […] A metallic cannula was then inserted and fixed to the proximal portion of the aorta, retrograde perfusion of oxygenated Krebs-Henseleit solution was initiated and heated up to 37° C. with constant flow of 13 mL/minute, kept by a continuous-infusion pump, Harvard Apparatus model RS232. The cannula tip was positioned quite close to the aortic valve to permit adequate coronary perfusion.
The heart was then removed and suspended through the cannula in a classic Langenhorff preparation. The Krebs Henseleit composition used was: 115 mM NaCl; 5.4 mM KCL; 1.25 mM CaCl2; 25 mM NaHCO3; 1.2 mM MgSO4; 1.5 mM NaH2PO4 and 11 nM glucose. […]

isolated rabbit heart [2] = experiment: re-induction of ventricular fibrillation after reversal (protective effect), isolated rabbit heart; settings: new attempt to induce ventricular fibrillation 5 minutes after reversal
Method: In order to carry out the experiments, twenty-seven male and female white New Zealand rabbits, weighing 2.5-3.5 kg, received 100 Ul/kg of intravenous heparin and were killed by cervical displacement.
The thorax was rapidly opened by middle-sized incision, and the sternum beaten back for complete exposure of the inside of the thorax. The pericardium was removed and the rising part of the aorta was isolated and repaired with a cotton thread 3-0. A metallic cannula was then inserted and fixed to the proximal portion of the aorta, retrograde perfusion of oxygenated Krebs-Henseleit solution was initiated and heated up to 37° C. with constant flow of 13 mL/minute, kept by a continuous-infusion pump, Harvard Apparatus model RS232. The cannula tip was positioned quite close to the aortic valve to permit adequate coronary perfusion.
The heart was then removed and suspended through the cannula in a classic Langenhorff preparation. […]
Two pairs of electrodes (Monicron 2-O) were saturated on the LV: one at the tip, called proximal (P) and the other at the branching of front descending coronary artery branching with the first diagonal, called distal (D). […] The cardiac frequency was determined by measuring the interval between two consecutive electrograms and transformed into beats per minute (bpm). […]

| SMILES | reversal of sustained ventricular fibrillation (in words) (isolated rabbit heart [1]) | prevention of re-induction of ventricular fibrillation by electric stimulus (isolated rabbit heart [2]) |
| --- | --- | --- |
| CCCCc1oc2ccccc2c1C(=O)c1cc(I)c(OCCN(CC)CC)c(I)c1 [amiodarone] | do not have any effect | – |
| CCN(CC)CC(=O)Nc1c(C)cccc1C [lidocain] | – | does not prevent the reinduction |
| CC(C)NCC(O)COc1cccc2ccccc12 (stereo not drawn) [propranolol] | do not have any effect | – |
